Assay results reported in patent publication US6541486B1, “Bis-benzimidazole compounds and analogs thereof for inhibiting cell death” (Elan Pharma International Ltd., priority 1999, dated 2003).

Experiments:
[1] = system: Oxygen/Glucose Deprived RGCs (retinal ganglion cells); assay: Protection of oxygen/glucose deprived (OGD) retinal ganglion cells, EC50; conditions: overall judgement
Protocol: Each compound was added to control cells and to cells deprived of oxygen and glucose for the time period from 30 minutes prior to OGD, during OGD, and for 24 and 48 hours after OGD.
RGCs from postnatal day 8 (P8) Sprague-Dawley rats were purified as previously described (Barres et al., 1988; Meyer-Franke et al., 1995). Purified retinal ganglion cells were plated onto tissue culture plastic precoated with poly-D-lysine and merosin, and cultured in serum-free Neurobasal medium (Gibco) containing various supplements.
Approximately 5,000 purified RGCs were cultured in 96-well plates (Falcon), precoated with poly-D-lysine (PDL, 70 kD, 10 mg/ml; Sigma) and merosin (2 mg/ml; Gibco). The RGCs were cultured in serum-free Neurobasal medium (Brewer et al., 1993; Gibco) containing Sato-Bottenstein and B27 (Gibco) supplement, insulin (Sigma, 5 mg/ml), brain-derived neurotrophic factor (BDNF, 25 ng/ml; Preprotech), ciliary neurotrophic factor (CNTF, 20 ng/ml; Preprotech) and forskolin (10 mM, Sigma). The percentage of surviving cells was assessed at 3, 7, and 14 days by the MTT assay.
Retinal ganglion cells were grown in 96-well plates for 5 days in serum-free medium as described above. On the sixth day cells were washed three times in a salt solution, e.g. Earle's balanced salt solution (EBSS, Gibco), containing glucose for control cells, and lacking glucose for test cells (oxygen/glucose-deprived cells). Control cells were further incubated in a 5% CO2 incubator while OGD cells were deprived of oxygen in an anaerobic chamber (for 3 hours). Test compounds were added to control cells and OGD cells for the time period from 30 minutes prior to OGD, during OGD, and for 24 and 48 hours after OGD.
After 3 hours OGD, control and test cells were transferred to growth medium with glucose and cultured an additional 48 hours in a 5% CO2 incubator, followed by a determination of cell viability using MTT, propidium iodide and annexin assays.
For the cell viability assay, MTT was added to culture and incubated at 37° C. for 1 hr. […] Viable and dead cells are counted by bright field microscopy at various times, e.g. 24, 48, or 72 hours after oxygen/glucose and/or growth factor deprivation. All values are reported as the mean (average) +/− the standard error of the mean (SEM) for at least three replicate cultures.

[2] = system: OGD cells (retinal ganglion cells); assay: Increase in survival of OGD cells at fixed concentrations (similar assay); type: cell-based, rat; set-up: key: +: up to 50% increase; ++: 50%-100% increase; +++: >100% increase; —: negligible or no increase

Row | SMILES | Effectiveness in protecting OGD RGCs (in words, from Tables 5 and 6) [1] | Percent Increase in Survival over OGD Control Cells ([2]; Concn 0.01 μM) | Percent Increase in Survival over OGD Control Cells ([2]; Concn 0.1 μM) | Percent Increase in Survival over OGD Control Cells ([2]; Concn 10 μM) | further results
1 | CN1CCN=C1CCc1nc2ccccc2n1C [SNX 1771] | very effective |  |  |  | 
2 | Clc1ccc2[nH]c(Cc3nc4ccccc4[nH]3)nc2c1 [SNX 899, 5-chloro*] |  | + (up to 50% increase) | ++ (50%-100% increase) | + (up to 50% increase) | Percent Increase in Survival over OGD Control Cells ([2]; Concn 1 μM): ++ (50%-100% increase); Percent Increase in Survival over OGD Control Cells ([2]; Concn .1 μM): ++ (50%-100% increase)
3 | c1ccc2[nH]c(CC3=NCCN3)nc2c1 [SNX 978, 2-(4,5-dihydroimidazol-2-yl)methyl benzimidazole] | very effective |  |  |  | 
4 | N#Cc1ccc2[nH]c(Cc3nc4ccc(C#N)cc4[nH]3)nc2c1 [SNX 931, 5,5′-dicyano*] |  | + (up to 50% increase) | + (up to 50% increase) | ++ (50%-100% increase) | Percent Increase in Survival over OGD Control Cells ([2]; Concn 0.001 μM): —; Percent Increase in Survival over OGD Control Cells ([2]; Concn 1 μM): —
5 | c1ccc2[nH]c(CC3=NCCCN3)nc2c1 [SNX 1818, 2-(3,4,5,6-tetrahydropyrimidin-2-yl)methyl benzimidazole] | very effective |  |  |  | 
6 | CC1(C)CN=C(Cc2nc3ccccc3[nH]2)N1 [SNX 1020, 2-(5,5-Dimethyl-4,5-dihydro-1H-imidazol-2-ylmethyl)-1H-benzimidazole] | very effective |  |  |  | 
7 | c1cnc2[nH]c(Cc3nc4cccnc4[nH]3)nc2c1 [SNX 911, 2,2′-methylenebis(4-azabenzimidazole)] | very effective |  |  |  | 
8 | O=C(c1ncc[nH]1)c1ncc[nH]1 [SNX 951, di(imidazol-2-yl)methanone] | very effective |  |  |  | 
9 | c1ccc2[nH]c(Cc3nc4ccccc4[nH]3)nc2c1 [SNX 857] |  | + (up to 50% increase) | +++ (>100% increase) | +++ (>100% increase) | Percent Increase in Survival over OGD Control Cells ([2]; Concn .1 μM): ++ (50%-100% increase)
10 | Cn1c(Cc2nc3ccccc3n2C)nc2ccccc21 [SNX 910, 1,1′-dimethyl*] |  | ++ (50%-100% increase) | ++ (50%-100% increase) | + (up to 50% increase) | Percent Increase in Survival over OGD Control Cells ([2]; Concn .1 μM): +++ (>100% increase)
11 | c1ccc2[nH]c(CC3=NCCCCN3)nc2c1 [SNX 1819, 2-(4,5,6,7-tetrahydro-1,3-diazepin-2-yl)methyl benzimidazole] | very effective |  |  |  | 
12 | c1ccc(CN2CCN=C2Cc2nc3ccccc3[nH]2)cc1 [SNX 979, 2-(1-benzyl-4,5-dihydroimidazol-2-yl)methyl benzimidazole] | very effective |  |  |  | 
13 | O=[N+]([O-])c1ccc2[nH]c(Cc3nc4ccc([N+](=O)[O-])cc4[nH]3)nc2c1 [SNX 897, 5,5′-dinitro*] |  | ++ (50%-100% increase) | ++ (50%-100% increase) |  | Percent Increase in Survival over OGD Control Cells ([2]; Concn 1 μM): ++ (50%-100% increase)
14 | Nc1ccc2[nH]c(Cc3nc4ccc(N)cc4[nH]3)nc2c1 [SNX 898, 5,5′-diamino*] |  | + (up to 50% increase) | + (up to 50% increase) | — | Percent Increase in Survival over OGD Control Cells ([2]; Concn 1 μM): + (up to 50% increase)
